Laboratory results from patent US8759014B2, “Methods of obtaining antigen-specific T cell populations” (The United States of America, as represented by the …, priority 2008, dated 2014).

Each compound was assayed on PBMC from HLA-A2+ metastatic melanoma patients (assay: not given). Settings: not given.
`CC[C@H](C)[C@H](N)C(=O)N[C@H](C(=O)N[C@@H](CC(=O)O)C(=O)N[C@@H](CCC(N)=O)C(=O)N[C@H](C(=O)N1CCC[C@H]1C(=O)N[C@@H](Cc1ccccc1)C(=O)N[C@@H](CO)C(=O)N[C@H](C(=O)O)C(C)C)C(C)C)[C@@H](C)O` [gp100209-217] was tested, and the “number of patients with at least one microculture with significant peptide reactivity (SI >2)” value was 16 patients.

Same assay, conditions: 17 HLA-A2+ melanoma patients (8 for gp100154-162); 1 μM peptide, 6 days, IL-2 90 IU/ml
With `CC[C@H](C)[C@H](N)C(=O)N[C@H](C(=O)N[C@@H](CC(=O)O)C(=O)N[C@@H](CCC(N)=O)C(=O)N[C@H](C(=O)N1CCC[C@H]1C(=O)N[C@@H](Cc1ccccc1)C(=O)N[C@@H](CO)C(=O)N[C@H](C(=O)O)C(C)C)C(C)C)[C@@H](C)O` [gp100209-217] the “percent of patients with individual wells with peptide reactivity above background” value was 94%.

Each compound was assayed on PBMC sub-populations (assay: HT-qPCR IFN-γ screen of PBMC sub-populations contacted with candidate mesothelin peptides). Settings: highest IFN-γ mRNA stimulation index of PBMC sub-populations contacted with the peptide and IL-2; SI <2 = not reactive.
Assay type: cell-based, human
Method: PBMCs obtained by leukapheresis from HLA-A2+ metastatic melanoma patients are used to establish 96 independent subpopulations cultured in complete medium (CM) consisting of RPMI 1640 supplemented with 10% heat-inactivated fetal bovine serum, 2 mM L-glutamine (Invitrogen, Carlsbad, Calif.), 50 units/mL penicillin (Invitrogen), 50 μg/mL streptomycin (Invitrogen), 50 μg/mL gentamicin (Invitrogen), 10 mM Hepes (Invitrogen), and 250 ng/mL Amphotericin B (Invitrogen), along with 10% heat-inactivated human AB serum (Gemini Bio-Products, Woodland, Calif.). […] The SI reactivities for the 96 wells are stratified by their magnitude and the most reactive subpopulations are selected for limiting dilution cloning.
Mesothelin peptides of the following amino acid sequence are synthesized as essentially described in Example 1: […] (SEQ ID NO: 12), […] (SEQ ID NO: 11), […] (SEQ ID NO: 13), […] (SEQ ID NO: 14), […] (SEQ ID NO: 15), […] (SEQ ID NO: 16), […] (SEQ ID NO: 17), […] (SEQ ID NO: 18), […] (SEQ ID NO: 19), and […] (SEQ ID NO: 20). The peptides are used to contact PBMC sub-populations along with IL-2 in accordance with the procedures described in Example 4. HT-qPCR is performed on a sample of each sub-population to determine the expression of IFN-γ by the contacted PBMC sub-populations.
With FLLFSLGWV the “Highest SI (Day 14)” value was 29.
For LIFYKKWEL, the “Highest SI (Day 14)” value was less than 2.
In the case of LLATQMDRV, the “Highest SI (Day 14)” value is reported as less than 2.
LLGFPCAEV was tested, and the “Highest SI (Day 14)” value was less than 2.
For LPLDLLLFL, the “Highest SI (Day 14)” value was less than 2.
NMNGSEYFV was tested, and the “Highest SI (Day 14)” value was “*<2”.
With RLSEPPEDL the “Highest SI (Day 14)” value was less than 2.
SLLFLLFSL was tested, and the “Highest SI (Day 14)” value was 119.
In the case of VLLPRLVSC, the “Highest SI (Day 14)” value is reported as less than 2.
For VLPLTVAEV, the “Highest SI (Day 14)” value was less than 2.
